Experimental data published in US20040204417A1, “Novel benzothienyl or indole derivatives, preparation and use thereof as inhibitors of prenyl transferase proteins” (priority 2001, published 2004).

Legend:
[1] = target: T1, protein farnesyl transferase (Bos taurus, UniProt P29702+P49355); experiment: Evaluation of the inhibition of protein farnesyl transferase (dansyl-GCVLS fluorescence); assay type: biochemical, bovine; settings: read-out: IC50 PFTase
T1 construct: partially purified from bovine brain by ion-exchange chromatography; from tissue; host or cells: bovine brain
Procedure: A) Evaluation of the inhibition of protein farnesyl transferase
The farnesylation of the dansylated peptide GCVLS, catalyzed with the enzyme protein farnesyl transferase, results in a change in the emission spectrum of the dansyl group, and especially an increase in the emission at 505 nm when the molecule is excited at 340 nm. When measured using the spectrofluorimeter, this emission is proportional to the activity of the enzyme (Pompliano et al., J. Am. Chem. Soc. 1992; 114: 7945-7946).
55 mM TRIS/HCl pH 7.5; 5.5 mM DTT; 5.5 mM MgCl2; 110 μM ZnCl2, 0.22% B-octyl-B D-glucopyrannoside.
Farnesyl pyrophosphate (FPP), (Sigma)
Dansylated peptide dansyl-GCVLS (Neosystem/Strasbourg, France)
The protein farnesyl transferase is partially purified from bovine brain by ion-exchange chromatography on Q-sepharose (Pharmacia) (Moores et al., J. Biol. Chem. 1991, 266: 14603-14610, Reiss et al., Cell 1990, 62: 81-88).
The reaction mixture containing 2 μM of FPP, 2 μM of dansyl GCVLS with or without (zero) the amount of enzyme giving an intensity of 100 on the spectrofluorimeter after incubation for 10 minutes at 37° C., is prepared on ice.
In an Eppendorf tube, 360 μl of reaction mixture are mixed with 40 μl of 10× concentrated test product or of solvent, and incubated for 10 minutes at 37° C. The reaction is quenched on ice and the fluorescence intensity is measured (excitation at 340 nm, 4 nm slit, emission at 505 nm, 10 nm slit). The tests are performed in duplicate. The results are expressed as a percentage of inhibition. Under these conditions, the derivatives of the present invention were identified as powerful inhibitors of protein farnesyl transferase (IC50<10 μM).
Adaptation of the method to a 96-wellformat:
The procedure is similar to that above, except that the measurements are performed in a “Black Fluorotrack 200” 96-well device (Greiner, Poitiers, France) and the readings are performed using a “Spectrametrix Gemini” 96-well fluorimeter (Molecular Devices, Sunnyvale, Calif., USA)

GGPT I = target: T2, GGPT I (Bos taurus, UniProt P29702+Q5EAD5); experiment: Evaluation of the inhibition of geranyl geranyl transferase protein I (3H-GGPP incorporation into RhoA-GST); assay type: biochemical, bovine; settings: read-out: IC50 PGGTase
T2 construct: GGPT I is partially purified from bovine brain by ion-exchange chromatography; from tissue; host or cells: bovine brain
Procedure: B) Evaluation of the inhibition of geranyl geraryl transferase protein I:
55 mM TRIS/HCl pH 7.5; 5.5 mM DTT; 5.5 mM MgCl2; 110 μM ZnCl2, 0.22% N-octyl-B D-glucopyrannoside.
^3H-geranylgeranyl pyrophosphate (GGPP), 66 μM, 15 CI/mmol, (Isotopchim)
Rho-GST recombinant protein
GGPT I is partially purified from bovine brain by ion-exchange chromatography on Q-sepharose (Pharmacia); elution at 0.23 and 0.4 M NaCl, respectively.
The reaction mixture containing 0.2 μM of ^3H-GGPP, 1 μM of RhoA-GST with or without (zero) 5 μl of GGPT/test, is prepared on ice.
In an Eppendorf tube, 45 μl of reaction mixture are mixed with 5 μl of 10× concentrated test product or of solvent, and incubated for 45 minutes at 37° C. A 45 μl aliquot is placed on a phosphocellulose P81 filter (Whatman, Maidstone, UK) numbered, washed with 50% ethanol, phosphoric acid (0.5%) and counted by scintillation.
The tests are performed in duplicate. The results are expressed as a percentage of inhibition.
Adaptation of the method to a 96-wellformat
The procedure is similar to that above, except that the measurements are performed in 96-well plates (Nunc, France) and the reactions are then passed through a 96-well “Unifilter” (Whatman, Maidstone, UK) containing a phosphocellulose P81 buffer using a “Filtermate 196” system (Packard, France).
After washing with 50% ethanol and phosphoric acid (0.5%), the filters are counted by scintillation on a “Packard Topcount” instrument.
The tests are performed in triplicate. The results are expressed as a percentage of inhibition.

| IC50 [1] [nM] | IC50 (GGPT I) [nM] | Structure (SMILES) |
| --- | --- | --- |
| 4 | 10 | CC(C)C[C@H](NC(=O)c1cc2c(NCc3cncn3Cc3ccc(C#N)cc3)cccc2s1)C(=O)O [Example 28, (2S)-2-[(4-{[3-(4-cyanobenzyl)-3H-imidazol-4-ylmethyl]amino}benzo[b]thiophene-2-carbonyl)amino]-4-methylpentanoic acid] |
| 6 | – | CSCC[C@H](NC(=O)c1cc2c(N(Cc3cncn3Cc3ccc(C#N)cc3)S(=O)(=O)c3ccccc3)cccc2s1)C(=O)O [Example 30, (2S)-2-[(4-{benzenesulfonyl-[3-(4-cyanobenzyl)-3H-imidazol-4-ylmethyl]amino}benzo[b]thiophene-2-carbonyl)amino]-4-(methylsulfanyl)butyric acid] |
| 6 | 70 | CC(C)C[C@H](NC(=O)c1cc2cc(N(Cc3cncn3Cc3ccc(C#N)cc3)S(=O)(=O)c3ccccc3)ccc2s1)C(=O)O [Example 33, (2S)-2-[(5-{benzenesulfonyl-[3-(4-cyanobenzyl)-3H-imidazol-4-ylmethyl]amino}benzo[b]thiophene-2-carbonyl)amino]-4-methylpentanoic acid] |
| 10 | – | CCOC(=O)c1cc2cc(NCc3cncn3Cc3ccc(C#N)cc3)ccc2s1 [Example 34, Ethyl 5-{[3-(4-cyanobenzyl)-3H-imidazol-4-ylmethyl]amino}benzo[b]thiophene-2-carboxylate] |
| 2 | – | COC(=O)[C@H](CCSC)NC(=O)c1cc2cc(N(Cc3cncn3Cc3ccc(C#N)cc3)S(=O)(=O)c3ccccc3)ccc2s1 [Example 40] |
| 1 | – | N#Cc1ccc(Cn2cncc2CN(c2ccc3sc(C(=O)NCc4cccs4)cc3c2)S(=O)(=O)c2ccccc2)cc1 [Example 46, N-(Thiophen-2-ylmethyl)-5-{benzenesulfonyl-[3-(4-cyanobenzyl)-3H-imidazol-4-ylmethyl]amino}benzo[b]thiophene-2-carboxamide] |
| 3 | – | N#Cc1ccc(Cn2cncc2CN(c2ccc3sc(C(=O)NC4CCCC4)cc3c2)S(=O)(=O)c2ccccc2)cc1 [Example 55, N-Cyclopentyl-5-{benzenesulfonyl-[3-(4-cyanobenzyl)-3H-imidazol-4-ylmethyl]amino}benzo[b]thiophene-2-carboxamide] |
| 3 | – | CCCCNC(=O)c1cc2cc(N(Cc3cncn3Cc3ccc(C#N)cc3)S(=O)(=O)c3ccccc3)ccc2s1 [Example 57, N-Butyl-5-{benzenesulfonyl-[3-(4-cyanobenzyl)-3H-imidazol-4-ylmethyl]amino}benzo[b]thiophene-2-carboxamide] |
| 2 | – | N#Cc1ccc(Cn2cncc2CN(C(=O)c2cccs2)c2ccc3sc(C(=O)N4CCSCC4)cc3c2)cc1 [Example 91, N-[3-(4-Cyanobenzyl)-3H-imidazol-4-ylmethyl]-N-[2-(thiomorpholine-4-carbonyl)benzo[b]thiophen-5-yl]thiophene-2-carboxamide] |
| 2 | – | CCCC(=O)N(Cc1cncn1Cc1ccc(C#N)cc1)c1ccc2sc(C(=O)N3CCSCC3)cc2c1 [Example 92, N-[3-(4-Cyanobenzyl)-3H-imidazol-4-ylmethyl]-N-[2-(thiomorpholine-4-carbonyl)benzo[b]thiophen-5-yl]butyramide] |
| 1 | – | N#Cc1ccc(Cn2cncc2CN(C(=O)c2cccc(F)c2)c2ccc3sc(C(=O)N4CCSCC4)cc3c2)cc1 [Example 97, N-[3-(4-Cyanobenzyl)-3H-imidazol-4-ylmethyl]-N-[2-(thiomorpholine-4-carbonyl)benzo[b]thiophen-5-yl]-3-fluorobenzamide] |
| 6 | – | N#Cc1ccc(Cn2cncc2CN(C(=O)Cc2ccccc2)c2ccc3sc(C(=O)N4CCSCC4)cc3c2)cc1 [Example 100, N-[3-(4-Cyanobenzyl)-3H-imidazol-4-ylmethyl]-N-[2-(thiomorpholine-4-carbonyl)benzo[b]thiophen-5-yl]-2-phenylacetamide] |
| 5 | – | N#Cc1ccc(Cn2cncc2CN(C(=O)C2CCCCC2)c2ccc3sc(C(=O)N4CCSCC4)cc3c2)cc1 [Example 101, N-[3-(4-Cyanobenzyl)-3H-imidazol-4-ylmethyl]-N-[2-(thiomorpholine-4-carbonyl)benzo[b]thiophen-5-yl]cyclohexanecarboxamide] |
| 8 | – | CCCCN(Cc1cncn1Cc1ccc(C#N)cc1)c1ccc2sc(C(=O)N3CCSCC3)cc2c1 [Example 113, 4-[5-({Butyl[2-(thiomorpholine-4-carbonyl)benzo[b]thiophen-5-yl]amino}methyl)imidazol-1-ylmethyl]benzonitrile] |
| 8 | 20 | N#Cc1ccc(Cn2cncc2CN(C(=O)c2ccccc2)c2ccc3[nH]c(C(=O)N4CCCCC4)c(-c4ccccc4)c3c2)cc1 [Example 164, N-[3-(4-Cyanobenzyl)-3H-imidazol-4-ylmethyl]-N-[3-phenyl-2-(piperidine-1-carbonyl)-1H-indol-5-yl]benzamide] |
| 10 | 60 | N#Cc1ccc(Cn2cncc2CN(C(=O)c2ccccc2)c2ccc3[nH]c(C(=O)N4CCSCC4)c(-c4ccccc4)c3c2)cc1 [Example 165, N-[3-(4-Cyanobenzyl)-3H-imidazol-4-ylmethyl]-N-[3-phenyl-2-(thiomorpholine-4-carbonyl)-1H-indol-5-yl]benzamide] |
| 400 | 7 | N#Cc1ccc(Cn2cncc2CN(C(=O)C2CCCCC2)c2ccc3[nH]c(C(=O)N4CCCCC4)c(-c4ccccc4)c3c2)cc1 [Example 167, Cyclohexanecarboxylic-[3-(4-cyanobenzyl)-3H-imidazol-4-ylmethyl]-[3-phenyl-2-(piperidine-1-carbonyl)-1H-indol-5-yl]amide acid] |
